Source: patent US12077503B2, “Substituted cyclic amides and their use as herbicides” (FMC CORPORATION, priority 2015, dated 2024)

Tests used:
Type in all cases: in vivo
[1] = test system: corn (Zea mays); experiment: Test G Pre-Emergence Protocol; settings: Zea mays, pre-emergence, 312 h, evaluated after 13 days
In short: (§1)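 Spraying took place one day after sowing, at 15.625, 62.5 or 250 g/ha, using an acetone/water (50:50) spray solution containing 0.5% Tween 20. Plants were kept under glasshouse conditions (24/16 °C, 14 h light, 65% humidity, watered twice daily), and injury was rated 0–100 at day 13.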

[2] = test system: barnyardgrass (Echinochloa crus-galli); experiment: Test G Pre-Emergence Protocol; settings: Echinochloa crus-galli, pre-emergence, 312 h, evaluated after 13 days
In short: as §1

[3] = test system: ivy-leaved morning glory (Ipomoea hederacea); experiment: Test G Pre-Emergence Protocol; settings: Ipomoea, pre-emergence, 312 h, evaluated after 13 days
In short: as §1

[4] = test system: velvetleaf (Abutilon theophrasti); experiment: Test G Pre-Emergence Protocol; settings: Abutilon theophrasti, pre-emergence, 312 h, evaluated after 13 days
In short: as §1

[5] = test system: redroot pigweed (Amaranthus retroflexus); experiment: Test G Pre-Emergence Protocol; settings: Amaranthus retroflexus, pre-emergence, 312 h, evaluated after 13 days
In short: as §1

[6] = test system: giant foxtail (Setaria faberi); experiment: Test G Pre-Emergence Protocol; settings: Setaria faberi, pre-emergence, 312 h, evaluated after 13 days
In short: as §1

[7] = test system: corn (Zea mays); experiment: Test G Post-Emergence Protocol; settings: Zea mays, post-emergence, 312 h, read-out: Corn damage rating
In short: (§2)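 A glasshouse post-emergence test: 8-day-old plants sprayed at 15.625, 62.5 or 250 g/ha, then grown at 24/16 °C day/night with 14 h light and 65% humidity. Damage rated 13 days later, 0–100.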

[8] = test system: barnyardgrass (Echinochloa crus-galli); experiment: Test G Post-Emergence Protocol; settings: Echinochloa crus-galli, post-emergence, 312 h, read-out: Barnyardgrass damage rating
In short: as §2

[9] = test system: ivy-leaved morning glory (Ipomoea hederacea); experiment: Test G Post-Emergence Protocol; settings: Ipomoea, post-emergence, 312 h, read-out: Morningglory, Ivy-leaved damage rating
In short: as §2

[10] = test system: velvetleaf (Abutilon theophrasti); experiment: Test G Post-Emergence Protocol; settings: Abutilon theophrasti, post-emergence, 312 h, read-out: Velvetleaf damage rating
In short: as §2

[11] = test system: redroot pigweed (Amaranthus retroflexus); experiment: Test G Post-Emergence Protocol; settings: Amaranthus retroflexus, post-emergence, 312 h, read-out: Pigweed, Redroot damage rating
In short: as §2

[12] = test system: giant foxtail (Setaria faberi); experiment: Test G Post-Emergence Protocol; settings: Setaria faberi, post-emergence, 312 h, read-out: Foxtail, Giant damage rating
In short: as §2

[13] = 15.625 g ai/ha, evaluated after 13 days (100=total damage to plant; 0=no damage to plant)
[14] = 62.5 g ai/ha, evaluated after 13 days, 100=total damage to plant, 0=no damage to plant
[15] = 250 g ai/ha, evaluated after 13 days, 100=total damage to plant, 0=no damage to plant

Molecule CN1C[C@H](c2ccc(C(F)(F)F)c(C(F)(F)F)c2)[C@@H](C(=O)Nc2ccccc2S(C)(=O)=O)C1=O (racemic) [Compound 1799] has a plant injury at 15.625 g/ha ([1]; 15.625 g ai/ha, read-out: Corn damage rating (100=total damage to plant; 0=no damage to plant)) of 0%, a plant injury at 62.5 g/ha ([1]; 62.5 g ai/ha, 100=total damage to plant, 0=no damage to plant, read-out: Corn damage rating) of 70% and a plant injury at 250 g/ha ([1]; 250 g ai/ha, read-out: Corn damage rating (100=total damage to plant; 0=no damage to plant)) of 80%. It also gave a pest or weed control at 15.625 g/ha ([2]; 15.625 g ai/ha, read-out: Barnyardgrass damage rating (100=total damage to plant; 0=no damage to plant)) of 10%, a pest or weed control at 62.5 g/ha ([2]; 62.5 g ai/ha, 100=total damage to plant, 0=no damage to plant, read-out: Barnyardgrass damage rating) of 70% and a pest or weed control at 250 g/ha ([2]; 250 g ai/ha, read-out: Barnyardgrass damage rating (100=total damage to plant; 0=no damage to plant)) of 70%. The pest or weed control at 15.625 g/ha ([3]; 15.625 g ai/ha, read-out: Morningglory, Ivy-leaved damage rating (100=total damage to plant; 0=no damage to plant)) was 0%, the pest or weed control at 62.5 g/ha ([3]; 62.5 g ai/ha, 100=total damage to plant, 0=no damage to plant, read-out: Morningglory, Ivy-leaved damage rating) was 0% and the pest or weed control at 250 g/ha ([3]; 250 g ai/ha, read-out: Morningglory, Ivy-leaved damage rating (100=total damage to plant; 0=no damage to plant)) was 0%. The pest or weed control at 15.625 g/ha ([4]; 15.625 g ai/ha, read-out: Velvetleaf damage rating (100=total damage to plant; 0=no damage to plant)) was 0%, the pest or weed control at 62.5 g/ha ([4]; 62.5 g ai/ha, 100=total damage to plant, 0=no damage to plant, read-out: Velvetleaf damage rating) was 0% and the pest or weed control at 250 g/ha ([4]; 250 g ai/ha, read-out: Velvetleaf damage rating (100=total damage to plant; 0=no damage to plant)) was 20%. The pest or weed control at 15.625 g/ha ([5]; 15.625 g ai/ha, read-out: Pigweed, Redroot damage rating (100=total damage to plant; 0=no damage to plant)) was 0%, the pest or weed control at 62.5 g/ha ([5]; 62.5 g ai/ha, 100=total damage to plant, 0=no damage to plant, read-out: Pigweed, Redroot damage rating) was 10% and the pest or weed control at 250 g/ha ([5]; 250 g ai/ha, read-out: Pigweed, Redroot damage rating (100=total damage to plant; 0=no damage to plant)) was 40%. For the same molecule, the pest or weed control at 15.625 g/ha ([6]; 15.625 g ai/ha, read-out: Foxtail, Giant damage rating (100=total damage to plant; 0=no damage to plant)) was 50%, the pest or weed control at 62.5 g/ha ([6]; 62.5 g ai/ha, 100=total damage to plant, 0=no damage to plant, read-out: Foxtail, Giant damage rating) was 90% and the pest or weed control at 250 g/ha ([6]; 250 g ai/ha, read-out: Foxtail, Giant damage rating (100=total damage to plant; 0=no damage to plant)) was 90%. For the same molecule, the plant injury at 15.625 g/ha [7, 13] was 10%, the plant injury at 62.5 g/ha [7, 14] was 60% and the plant injury at 250 g/ha [7, 15] was 70%. It also gave a pest or weed control at 15.625 g/ha [8, 13] of 0%, a pest or weed control at 62.5 g/ha [8, 14] of 60% and a pest or weed control at 250 g/ha [8, 15] of 70%. It also gave a pest or weed control at 15.625 g/ha [9, 13] of 10%, a pest or weed control at 62.5 g/ha [9, 14] of 60% and a pest or weed control at 250 g/ha [9, 15] of 30%. The pest or weed control at 15.625 g/ha [10, 13] was 0%, the pest or weed control at 62.5 g/ha [10, 14] was 20% and the pest or weed control at 250 g/ha [10, 15] was 10%. It also gave a pest or weed control at 15.625 g/ha [11, 13] of 0%, a pest or weed control at 62.5 g/ha [11, 14] of 60% and a pest or weed control at 250 g/ha [11, 15] of 70%. The pest or weed control at 15.625 g/ha [12, 13] was 20%, the pest or weed control at 62.5 g/ha [12, 14] was 70% and the pest or weed control at 250 g/ha [12, 15] was 70%.
